For the first assay, the target named is PDE-5 (UniProt O76074). Description: In vitro PDE inhibitory activity against PDE5 (batch method or scintillation proximity assay). Type of assay: biochemical, human. Particulars: representative compounds. An excerpt:
The compounds of the invention are inhibitors of cyclic guanylate monophosphate (cGMP)-specific phosphodiesterase type 5 (PDE-5 inhibitors).
The required PDE enzymes can be isolated from a variety of sources, including human corpus cavernosum, human and rabbit platelets, human cardiac ventricle, human skeletal muscle and bovine retina, essentially by a modification of the method of Thompson, W J et al.; Biochemistry 18(23), 5228-5237, 1979, as described by Ballard S A et al.; J. Urology 159(6), 2164-2171, 1998. In particular, cGMP-specific PDE5 and cGMP-inhibited cAMP PDE3 can be obtained from human corpus cavernosum tissue, human platelets or rabbit platelets; cGMP-stimulated PDE2 was obtained from human corpus cavernosum; calcium/calmodulin (Ca/CAM)-dependent PDE1 from human cardiac ventricle; cAMP-specific PDE4 from human skeletal muscle; and photoreceptor PDE6 from bovine retina. Phosphodiesterases 7-11 can be generated from full length human recombinant clones transfected into SF9 cells.
Assays can be performed either using a modification of the “batch”method of Thompson W J and Appleman M M; Biochemistry 10(2), 311-316, 1971, essentially as described by Ballard S A et al.; J. Urology 159(6), 2164-2171, 1998, or using a scintillation proximity assay for the direct detection of [^3H]-labelled AMP/GMP using a modification of the protocol described by Amersham plc under product code TRKQ7090/7100. In summary, for the scintillation proximity assay the effect of PDE inhibitors was investigated by assaying a fixed amount of enzyme in the presence of varying inhibitor concentrations and low substrate, (cGMP or cAMP in a 3:1 ratio unlabelled to [^3H]-labeled at a concentration of ˜⅓ Km, or less) such that IC50≅Ki. The final assay volume was made up to 100 μl with assay buffer [20 mM Tris-HCl pH 7.4, 5 mM MgCl2, 1 mg/ml bovine serum albumin]. Reactions were initiated with enzyme, incubated for 30-60 min at 30° C. to give <30% substrate turnover and terminated with 50 μl yttrium silicate SPA beads (containing 3 mM of the respective unlabelled cyclic nucleotide for PDEs 9 and 11).
In general terms: In a scintillation proximity assay essentially only radioactivity close to the scintillant gives light.
`CCCN(C)c1nc(NC2CCCCC2)c2c(n1)c(C(=O)O)nn2CCOCC` [Example 30] gave a 50% inhibitory concentration (IC50) of 35.8 nM.
As for `CCN(C)c1nc(Nc2cc(C)ccn2)c2c(n1)c(C(=O)O)nn2CC1CCOCC1` [Example 58], the IC50 is 100 nM.
In the case of `CCOCCn1nc(C(=O)O)c2nc(N(C)C(C)C)nc(NC3CC3)c21` [Example 34], the half-inhibitory concentration (IC50) was found to be 100 nM.
The same measure, in the same setting: next, `CCOCCn1nc(C(=O)O)c2nc(N(C)C)nc(NC3CC3)c21` [Example 35]: 100 nM.
Still for that read-out and setting: under `Cc1ccnc(Nc2nc(N(C)C)nc3c(C(=O)O)nn(CC4CCCCO4)c23)c1` (stereo not shown) [Example 59] stands 43.6 nM; under `CCOCCn1nc(C(=O)O)c2nc(N(C)C)nc(NC3CCC3)c21` [Example 33], 100 nM.

The assay is the same for the next values; noted with them: representative compounds, read-out: IC50.
Take `CCOCCn1nc(C(=O)O)c2nc(N(CC)CC)nc(Nc3ccc(F)c(C)c3)c21` [Example 86]: the concentration for half-maximal inhibition (IC50) stood at 0.063 nM.
Turning to `CCOCCn1nc(C(=O)O)c2nc(N(C)CC)nc(Nc3cc(C)ncn3)c21` [Example 120], the IC50 came to 1.12 nM.
Same read-out and setting: next, `CCOCCn1nc(C(=O)O)c2nc(N[C@H](C)CC)nc(Nc3cc(C)ccn3)c21` [Example 56]: 9.11 nM; `CCCOCCn1nc(C(=O)NS(C)(=O)=O)c2nc(N(C)C(C)C)nc(Nc3cc(C)ccn3)c21` [Example 184, 5-[Isopropyl(methyl)amino]-7-[(4-methylpyridin-2-yl)amino]-N-(methylsulfonyl)-1-(2-propoxyethyl)-1H-pyrazolo[4,3-d]pyrimidine-3-carboxamide]: 0.5 nM.
Same read-out and setting: under `CCN(C)c1nc(Nc2cc(C)ccn2)c2c(n1)c(C(=O)O)nn2C[C@@H](C)OC` [Example 65] stands 25 nM; under `Cc1ccnc(Nc2nc(N(C)C(C)C)nc3c(C(=O)NS(C)(=O)=O)nn(CCOCCCF)c23)c1` [Example 176], 0.17 nM.
In the case of `CCN(CC)c1nc(Nc2ccc(F)c(C)c2)c2c(n1)c(C(=O)O)nn2CCOCC(F)(F)F` [Example 140], the IC50 amounted to 0.099 nM.
On the same count and under the same terms, under `CCN(CC)c1nc(Nc2cc(C)ccn2)c2c(n1)c(C(=O)O)nn2CCOCC(F)(F)F` [Example 128, 5-(Diethylamino)-7-[(4-methylpyridin-2-yl)amino]-1-[2-(2,2,2-trifluoroethoxy)ethyl]-1H-pyrazolo[4,3-d]pyrimidine-3-carboxylic acid] stands 3.94 nM; under `CCOCCn1nc(C(=O)O)c2nc(N(C)C(C)C)nc(Nc3cc(F)ccc3F)c21` [Example 92], 41 nM; under `CCOCCn1nc(C(=O)O)c2nc(N3CCCC3)nc(Nc3cc(C)ccn3)c21` [Example 134, 1-(2-Ethoxyethyl)-7-[(4-methylpyridin-2-yl)amino]-5-pyrrolidin-1-yl-1H-pyrazolo[4,3-d]pyrimidine-3-carboxylic acid], 5.02 nM.
Same read-out and setting: next, `CCCOCCn1nc(C(=O)NS(C)(=O)=O)c2nc(N(CC)CC)nc(Nc3cc(C)ccn3)c21` [Example 183, 5-(Diethylamino)-7-[(4-methylpyridin-2-yl)amino]-N-(methylsulfonyl)-1-(2-propoxyethyl)-1H-pyrazolo[4,3-d]pyrimidine-3-carboxamide]: 0.383 nM; `CCOCCn1nc(C(=O)O)c2nc(N(C)C(C)C)nc(Nc3ccncn3)c21` [Example 28]: 11.6 nM; `Cc1ccnc(Nc2nc(N(C)C(C)C)nc3c(C(=O)O)nn(CCOC(C)C)c23)c1` [Example 111, 1-(2-Isopropoxyethyl)-5-(N-isopropyl-N-methylamino)-7-(4-methylpyridin-2-ylamino)-1H-pyrazolo[4,3-d]pyrimidine-3-carboxylic acid]: 0.502 nM.
On the same count and under the same terms, under `CCOCCn1nc(C(=O)O)c2nc(N(C)C(C)C)nc(Nc3ccc(F)cn3)c21` [Example 81, 1-(2-Ethoxyethyl)-7-(5-fluoropyridin-2-ylamino)-5-(N-isopropyl-N-methylamino)-1H-pyrazolo[4,3-d]pyrimidine-3-carboxylic acid] stands 16.7 nM; under `CCOCCn1nc(C(=O)O)c2nc(N(C)C(C)C)nc(Nc3cnccn3)c21` [Example 29], 106 nM.
`CCOCCn1nc(C(=O)NS(C)(=O)=O)c2nc(N(C)CC)nc(Nc3cc(C)ncn3)c21` [Example 157]: the half-maximal inhibitory concentration (IC50) is 0.771 nM.
As to `CCOCCn1nc(C(=O)OCCN(C)C)c2nc(N(C)C)nc(Nc3cc(C)ccn3)c21` [Example 10, 2-(Dimethylamino)ethyl 5-dimethylamino-1-(2-ethoxyethyl)-7-(4-methylpyridin-2-ylamino)-1H-pyrazolo[4,3-d]pyrimidine-3-carboxylate], the 50% inhibitory concentration (IC50) turned out to be 1.86 nM.
Still for that read-out and setting: under `CCOCCn1nc(C(=O)O)c2nc(N(C)CC)nc(Nc3cccc(CC)n3)c21` [Example 97] stands 9.74 nM; under `CCOCCn1nc(C(=O)O)c2nc(N(C)C(C)C)nc(Nc3cccc(F)c3)c21` [Example 88], 21.3 nM; under `CCOCCn1nc(-c2nnn[nH]2)c2nc(N(C)C)nc(Nc3cc(C)ccn3)c21` [Example 80], 2.88 nM.
For `CCOCCn1nc(C(=O)O)c2nc(NC(C)C)nc(Nc3cc(C)ccn3)c21` [Example 54], the IC50 worked out at 2.03 nM.
`CCOCCn1nc(C(=O)O)c2nc(N(C)CC)nc(Nc3cccc(C)c3)c21` [Example 118, 1-(2-Ethoxyethyl)-5-[ethyl(methyl)amino]-7-[(3-methylphenyl)amino]-1H-pyrazolo[4,3-d]pyrimidine-3-carboxylic acid]: the IC50 stood at 1.72 nM.
`Cc1cc(Nc2nc(N(C)C(C)C)nc3c(C(=O)O)nn(CCOCC(F)(F)F)c23)ccc1F` [Example 139]: the IC50 came to 0.071 nM.
Same read-out and setting: next, `CCOCCn1nc(C(=O)O)c2nc(N(C)C(C)C)nc(Nc3cccc(C)c3)c21` [Example 94]: 0.303 nM.
Still for that read-out and setting: under `CCOCCn1nc(C(=O)NS(C)(=O)=O)c2nc(N(C)C(C)C)nc(Nc3cc(C)ccn3)c21` [Example 113, N-[1-(2-Ethoxyethyl)-5-(N-isopropyl-N-methylamino)-7-(4-methylpyridin-2-ylamino)-1H-pyrazolo[4,3-d]pyrimidine-3-carbonyl]methanesulfonamide] stands 0.27 nM; under `CCOCCn1nc(C(=O)O)c2nc(N(C)C(C)C)nc(Nc3cc(F)cc(F)c3)c21` [Example 91], 5.06 nM; under `CCN(CC)c1nc(Nc2cc(C)ccn2)c2c(n1)c(C(=O)NS(C)(=O)=O)nn2CCOCCCF` [Example 177], 0.17 nM.
Same read-out and setting: under `CCN(CC)c1nc(Nc2cc(C)ccn2)c2c(n1)c(C(=O)O)nn2C[C@@H](C)OC` [Example 66] stands 13.5 nM; under `CCOCCn1nc(C(=O)OC)c2nc(N(CC)CC)nc(Nc3ccc(F)c(C)c3)c21` [Example 117, Methyl 5-(diethylamino)-1-(2-ethoxyethyl)-7-[(4-fluoro-3-methylphenyl)amino]-1H-pyrazolo[4,3-d]pyrimidine-3-carboxylate], 0.025 nM; under `CCOCCn1nc(C(=O)O)c2nc(N(CC)CC)nc(Nc3cc(C)ccn3)c21` [Example 11], 1.09 nM.
As for `CCOCCn1nc(C(=O)O)c2nc(N(C)C)nc(Nc3ccnc(OC)n3)c21` [Example 71], the concentration for half-maximal inhibition (IC50) worked out at 2.46 nM.
Regarding `CCOCCn1nc(C(=O)OC)c2nc(N(C)CC)nc(Nc3cc(C)ccn3)c21` [Example 2], the half-maximal inhibitory concentration (IC50) was found to be 0.201 nM.
For the compound `Cc1cccc(Nc2nc(N(C)C(C)C)nc3c(C(=O)O)nn(CCOCC(F)(F)F)c23)c1` [Example 138], the IC50 is 0.065 nM.
Still for that read-out and setting: under `CCOCCn1nc(C(=O)O)c2nc(N(C)C(C)C)nc(Nc3cccc(F)c3F)c21` [Example 93] stands 23.2 nM.

As usually defined, the IC50 is the concentration that inhibits the measured activity by half.

The record behind these values is patent US7572799B2, “Pyrazolo[4,3-d]pyrimidines as Phosphodiesterase Inhibitors” (Pfizer Inc, priority 2003, dated 2009).
